Data as given in publication PMC8472287, “Betulinic Acid Decorated with Polar Groups and Blue Emitting BODIPY Dye: Synthesis, Cytotoxicity, Cell-Cycle Analysis and Anti-HIV Profiling” (Biomedicines, 2021).
pIC50: −log10 of the molar value. Where a name gives a salt, the structure may show the parent alone. Read-outs that look alike come from different tables or passages of the source.

Tests used:
BJ = test: MTS cytotoxicity assay, BJ; assay type: cell-based; conditions: Homo sapiens, 72 h, BJ normal fibroblasts, 3-day incubation
In short: (§1)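 Cells seeded at 25,000–35,000 cells/mL were exposed to four-fold dilutions of compound in DMSO for 72 h at 37 °C, 5% CO2. MTS added for 1–4 h, OD read at 490 nm; tumour cell survival calculated as percent of control-well OD.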

CCRF-CEM lymphoblasts [1] = test: BrU incorporation analysis (RNA synthesis); assay type: cell-based, human; conditions: 24 h, 5 × IC50 (high concentration)
CCRF-CEM = test: MTS cytotoxicity assay, CCRF-CEM; assay type: cell-based; conditions: Homo sapiens, 72 h, 3-day incubation
In short: as §1

CEM-DNR = test: MTS cytotoxicity assay, CEM-DNR; assay type: cell-based; conditions: Homo sapiens, 72 h, CEM-DNR (daunorubicin resistant), 3-day incubation
In short: as §1

HCT116p53−/− = test: MTS cytotoxicity assay, HCT116p53−/−; assay type: cell-based; conditions: Homo sapiens, HCT116-p53-null, 72 h, HCT116p53−/− (null p53 gene), 3-day incubation
In short: as §1

U2OS = test: MTS cytotoxicity assay, U2OS; assay type: cell-based; conditions: Homo sapiens, 72 h, 3-day incubation
In short: as §1

HCT116 = test: MTS cytotoxicity assay, HCT116; assay type: cell-based; conditions: Homo sapiens, HCT-116, 72 h, 3-day incubation
In short: as §1

entire cell line panel [2] = tested on: entire cell line panel
HEK 293 cells = conditions: Resazurin assay
MRC-5 = test: MTS cytotoxicity assay, MRC-5; assay type: cell-based; conditions: Homo sapiens, MRC5, 72 h, MRC-5 normal fibroblasts, 3-day incubation
In short: as §1

K562 = test: MTS cytotoxicity assay, K562; assay type: cell-based; conditions: Homo sapiens, 72 h, 3-day incubation
In short: as §1

CCRF-CEM lymphoblasts [3] = test: Mitotic marker pH3Ser10 flow cytometry; assay type: cell-based, human; conditions: 5 × IC50
Procedure: (§2) CCRF-CEM cells were seeded in 6-well plates at a density of 1 × 10^6/well. […] Cells were then harvested, washed with cold 1 × PBS and fixed in ice-cold 70% ethanol. Fixed cells were incubated overnight at −20 °C, washed in hypotonic citrate buffer, treated with RNase (50 μg mL^−1) and incubated with propidium iodide for 15 min. DNA content was analysed using Becton Dickinson flow cytometer and cell cycle data were analysed in the program ModFitLT (Verity, Carrollton, TX, USA). Apoptosis was measured in a logarithmic model expressing the percentage of the particles with propidium content lower than cells in G0/G1 phase (<G1) of the cell cycle. The mitotic marker pH3Ser10 antibody (Sigma) and secondary anti-mouse-FITC antibody (Sigma) were used for labelling and subsequent flow cytometry analysis of ethanol-fixed CCRF-CEM cells.

A549 = test: MTS cytotoxicity assay, A549; assay type: cell-based; conditions: Homo sapiens, 72 h, 3-day incubation
In short: as §1

CCRF-CEM lymphoblasts [4] = test: BrDU incorporation analysis (DNA synthesis); assay type: cell-based, human; conditions: 24 h incubation
Procedure: Cells were cultivated as in the method above and pulse-labelled with 10 μM 5-bromo-2-deoxyuridine (BrDU) for 30 min before collection to the test tubes. The cells were washed with cold 1 × PBS and fixed in ice-cold 70% ethanol. Before analysis, they were washed with 1 × PBS and incubated in 2M HCl for 30 min at room temperature. Following neutralization with 0.1M Na2B4O7 (borax), the cells were washed with 0.5% Tween-20 and 1% BSA in 1 × PBS. The cell pellets were stained using a primary anti-BrdU antibody (Exbio, Vestec, Czech Republic) for 30 min at room temperature and a secondary anti-mouse-FITC antibody (Sigma). The samples were then incubated with propidium iodide (0.1 mg mL^−1), treated with RNase A (0.5 mg mL^−1) for 1 h at room temperature in the dark and analysed as above.

CCRF-CEM lymphoblasts [5] = test: Cell cycle and apoptosis analysis (flow cytometry, propidium iodide); assay type: cell-based, human; conditions: 5 × IC50
Procedure: as §2

K562-Tax = test: MTS cytotoxicity assay, K562-Tax; assay type: cell-based; conditions: Homo sapiens, 72 h, K562-Tax (paclitaxel-resistant), 3-day incubation
In short: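 OD490 after 1–4 h MTS development gives tumour cell survival relative to control wells. Compound exposure lasted 72 h at 37 °C; K562-Tax is a paclitaxel-resistant K562 subline overexpressing P-glycoprotein.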

entire cell line panel [6] = test: MTS cytotoxicity assay, whole panel (summary in words); conditions: maximal tested concentration

Row | Structure (SMILES) | pIC50 (BJ) | RNA synthesis by BrU (in words) (CCRF-CEM lymphoblasts [1]) | pIC50 (CCRF-CEM) | pIC50 (CEM-DNR) | pIC50 (HCT116p53−/−) | pIC50 (U2OS) | pIC50 (HCT116) | cytotoxic effect in the cell line panel (in words) (entire cell line panel [2]) | concentration at which highly toxic to HEK 293 cells (HEK 293 cells) | pIC50 (MRC-5) | pIC50 (K562) | rate of cell division by mitotic marker pH3Ser10 (in words) (CCRF-CEM lymphoblasts [3]) | pIC50 (A549) | fraction of proliferating BrDU positive CCRF-CEM cells (in words) (CCRF-CEM lymphoblasts [4]) | increase of the percentage of cells in the S-phase compared to untreated control (CCRF-CEM lymphoblasts [5]) | pIC50 (K562-Tax) | cytotoxic effect in the cell line panel (in words) (entire cell line panel [6])
1 | C=C(C)[C@@H]1CC[C@]2(C(=O)N3CCN(CCN)CC3)CC[C@]3(C)[C@H](CC[C@@H]4[C@@]5(C)CC[C@H](O)C(C)(C)[C@@H]5CC[C@]43C)[C@@H]12 [Compound 14, (3β)-28-[4-(2-Aminoethyl)piperazine-1-yl]-3-hydroxylup-20(29)-ene-28-one hydrochloride] | 5.80 | stalled RNA synthesis | 6.54 | 6.46 | 6.36 | 6.38 | 6.41 | high cytotoxicity | lower than 5 µM | 5.80 | 6.40 | low rate of cell division | 5.90 | reduced the fraction of proliferating BrDU positive CCRF-CEM cells | about 50% | 6.28 | 
2 | C=C(C)[C@@H]1CC[C@]2(C(=O)O)CC[C@]3(C)[C@H](CC[C@@H]4[C@@]5(C)CC[C@H](O)C(C)(C)[C@@H]5CC[C@]43C)[C@@H]12 [BA, Betulinic acid] | < 4.30 |  | < 4.30 | 4.64 | < 4.30 | 4.53 | < 4.30 |  |  | < 4.30 | < 4.30 |  | 4.64 |  |  | < 4.30 | weak or medium cytotoxic effect
3 | C=C(C)[C@@H]1CC[C@]2(C(=O)NCCCN)CC[C@]3(C)[C@H](CC[C@@H]4[C@@]5(C)CC[C@H](O)C(C)(C)[C@@H]5CC[C@]43C)[C@@H]12 [Compound 3, (3β)-N-(3-Aminopropyl)-3-hydroxylup-20(29)-ene-28-amide] | 5.72 | stalled RNA synthesis | 6.68 | 5.91 | 6.36 | 6.05 | 6.09 | high cytotoxicity | lower than 5 µM | 5.59 | 6.05 | low rate of cell division | 5.74 | reduced the fraction of proliferating BrDU positive CCRF-CEM cells |  | 6.43 | 
